Patent US9675715B2, “Contrast agent for photoacoustic imaging” (CANON KABUSHIKI KAISHA, priority 2012, dated 2017)
“Also recorded” adds a separate entry of the source.

What was measured:
[1] = test system: sentinel lymph node (mouse popliteal lymph node); test: Photoacoustic imaging of sentinel lymph node after subcutaneous plantar administration; format: in vivo; details: photoacoustic imaging 1 day after subcutaneous administration into plantar surface of nude mouse, 130 nmol dye
Experimental: (§1) A commercially available photoacoustic imaging apparatus (Nexus128, manufactured by Endra Inc.) was used. Photoacoustic signals were measured at predetermined timings before and after the administration of a prepared contrast agent for PAI, and three-dimensional reconstruction data was acquired for each timing. The photoacoustic signal intensity in a region of interest (ROI) was measured on the basis of the resulting three-dimensional reconstruction data using software (GEHC MICROVIEW, GE Healthcare) or the like.

cerebral blood vessels = details: rat, free ICG administered in blood, NPL 1; cited from earlier work
[2] = Accumulation of contrast agent in Colon 26 tumor, dye extraction and fluorescence; format: in vivo; details: BALB/c Slc-nu/nu, mouse, intravenous, 13 nmol in terms of ICG
Experimental: (§2) Tumor model mice were prepared by subcutaneously implanting Colon 26 cells into BALB/c Slc-nu/nu mice.
(§3) Tumor model mice were prepared by subcutaneously implanting Colon 26 cells into BALB/c Slc-nu/nu mice. […] Furthermore, in this example, an aqueous solution of ICG (available from Pharmaceutical and Medical Device Regulatory Science of Japan) was used as a control sample.

tumor site = test: Photoacoustic signal intensity at tumor site 1 day after administration, relative to ICG; format: in vivo, mouse
Experimental: as §1

[3] = Hydrodynamic average particle size by dynamic light scattering; format: physicochemical; details: DLS-8000
Source text: In this embodiment, the particle size of the particles may be determined by measuring the hydrodynamic average particle size using the dynamic light scattering (DLS) method with a dynamic light scattering spectrophotometer (DLS-8000, manufactured by Otsuka Electronics Co., Ltd).
The ICG-encapsulating micellar particles refer to micellar particles in which ICG is contained in surfactant micelles by a known emulsification technique.

[4] = Blood accumulation in Colon 26 tumor model mice; format: in vivo; details: BALB/c Slc-nu/nu, mouse, intravenous, 13 nmol in terms of ICG, read-out: Blood accumulation 1 day after administration
Experimental: as §2, §3

[5] = test system: sentinel lymph node (mouse popliteal lymph node); test: Accumulation in sentinel lymph node, absorbance of lymph node extracts; format: in vivo; details: 1 day after administration, 10 nmol dye, accumulation of ICG defined as 1
Experimental: In examples of the present invention, the transfer of the contrast agent for PAI into a sentinel lymph node (SLN) was evaluated by the use of a mouse popliteal lymph node. Ten microliters of the contrast agent was administered subcutaneously into the plantar surface of a nude mouse.
As a comparative example, mouse popliteal lymph nodes were removed 1 day after the administration of various contrast agents, homogenized, and extracted. The resulting extracts were subjected to absorbance measurement.
Accumulation rates were each calculated on the basis of the following formula: Accumulation rate={(absorbance of removed mouse popliteal lymph node)/(absorbance corresponding to amount of sample administered)}×100
After the calculation of the accumulation, the accumulation ratios of various materials were calculated when the accumulation 1 day after the administration of ICG was defined as 1.
According to “Evaluation example of accumulation in sentinel lymph node”, the accumulation in a sentinel lymph node was evaluated. In this example, 10 nmol of the contrast agent in terms of the amount of the dye was administered to a mouse.

[6] = known; cited from earlier work
N87 cell line tumor = test: Amount transferred into tumor mass, fluorescence imaging of N87 tumor-bearing mice; format: in vivo, mouse; details: 1 day after administration, fluorescence ROI of tumor site, relative to ROI value of ICG
Experimental: The tumor-bearing mice were prepared by subcutaneously implanting a human gastric cancer cell line (N87) or a human cervical cancer cell line (HeLa) into nude mice. Then 130 nmol of a contrast agent in terms of the amount of the dye was administered into each of the tumor-bearing mice. […] As a comparative example, fluorescence imaging of the tumor-bearing mice was performed 1 day after the administration. Fluorescence imaging was performed with IVIS (registered trademark) Imaging System to measure fluorescence intensity in a region of interest (ROI) of the tumor site.
The tumor accumulation 1 day after the administration was evaluated by fluorescence. The accumulation in ROI of the tumor site was calculated.

## CC1(C)C(/C=C/C=C/C=C/C=C2/N(CCCCS(=O)(=O)[O-])c3ccc4ccccc4c3C2(C)C)=[N+](CCCCS(=O)(=O)[O-])c2ccc3ccccc3c21.[Na+] [ICG, indocyanine green]
[1]
  Visualization of SLN: substantially no photoacoustic signal was observed; also recorded: unvisualizable
Cerebral blood vessels
  time after administration at which photoacoustic signal intensity is reduced to a level equal to that of blood: several tens of minutes
[2]; tumor / blood, 1 day after administration, read-out: Ratio of accumulation (tumor/blood)
  Kp at 24 h: 0.5
[2]; tumor tissue (Colon 26), Colon 26 tumor, 24 hours, read-out: Tumor accumulation 1 day after administration
  tissue uptake at 24 h: 0.1 %ID/g
Tumor site
  Relative photoacoustic signal intensity 1 day after administration (signal intensity in administration of ICG = 1.0): 1.0
[3]
  Hydrodynamic average particle size: unmeasurable
[4]
  tissue uptake at 1 day: 0.2 %ID/g
[5]
  Relative accumulation: 1.0
[6]
  half-life in blood: about several minutes
N87 cell line tumor
  Relative tumor accumulation: 1.0
